Consider 25 compounds from patent EP3442966B1, “NOVEL N-[(PYRIMIDINYLAMINO)PROPANYL]- AND N-[(PYRIDINYLAMINO)PROPANYL]ARYLCARBOXAMIDES” (Boehringer Ingelheim International GmbH, priority 2016, dated 2017).

Read-outs that look alike come from different tables or passages of the source.

For test [1], the target named is T1, OX2R (Homo sapiens, UniProt O43614).
T1 sequence (O43614 1-444): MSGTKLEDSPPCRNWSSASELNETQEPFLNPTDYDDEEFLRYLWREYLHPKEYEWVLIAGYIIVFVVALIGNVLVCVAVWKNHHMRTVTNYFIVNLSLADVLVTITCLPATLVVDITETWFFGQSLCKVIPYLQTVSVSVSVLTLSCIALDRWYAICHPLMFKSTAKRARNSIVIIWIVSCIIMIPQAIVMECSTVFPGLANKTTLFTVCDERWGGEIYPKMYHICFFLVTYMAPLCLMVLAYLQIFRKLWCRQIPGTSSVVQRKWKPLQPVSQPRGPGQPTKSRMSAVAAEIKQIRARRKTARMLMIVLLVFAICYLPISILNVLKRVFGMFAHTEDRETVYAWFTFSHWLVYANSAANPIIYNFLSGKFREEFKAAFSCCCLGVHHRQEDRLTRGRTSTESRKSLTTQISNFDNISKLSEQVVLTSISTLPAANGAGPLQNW
Particulars: WO2016/034882 Table 2 (Method A), cited from earlier work; for IC50: conversion of pIC50.

Test [2] deals with T1, OX2R. Particulars: WO2016/034882 Table 3 (Method B), cited from earlier work; for IC50: conversion of pIC50.
The target in test [3] is T2, human Orexin 1 receptor (Homo sapiens, UniProt O43613).
T2 construct: stably expressing the full-length human Orexin 1 receptor; expressed in transfected cells; host or cells: CHO-K1 (CHO-K1/hOx1), co-expressing the aequorin photoprotein
T2 sequence (O43613 1-425): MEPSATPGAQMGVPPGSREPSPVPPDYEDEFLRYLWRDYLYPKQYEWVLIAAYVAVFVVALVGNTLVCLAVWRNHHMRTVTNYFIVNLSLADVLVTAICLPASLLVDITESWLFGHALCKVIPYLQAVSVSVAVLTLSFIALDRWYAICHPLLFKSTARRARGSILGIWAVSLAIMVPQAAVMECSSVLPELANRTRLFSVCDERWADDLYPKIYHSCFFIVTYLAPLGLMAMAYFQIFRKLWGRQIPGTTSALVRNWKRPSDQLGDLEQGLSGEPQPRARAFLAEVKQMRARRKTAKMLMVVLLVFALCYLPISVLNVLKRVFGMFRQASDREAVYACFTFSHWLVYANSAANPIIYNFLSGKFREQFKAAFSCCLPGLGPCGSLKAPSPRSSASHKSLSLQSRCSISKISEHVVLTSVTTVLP
Nature of the test: Assay A: in vitro testing of OX1R potency, OX1R IP1 (HTRF) in CHO-K1/hOx1 cells. Format: cell-based. The text has this: Activation of the orexin receptors expressed in cell lines results in an increase in intracellular IP3 concentration. IP1, a downstream metabolite of IP3, accumulates in cells following receptor activation and is stable in the presence of LiCI. Using Homogeneous Time-Resolved Fluorescence technology with Lumi4-Tb cryptate (commercially available from Cisbio Bioassay) and a suitable fluorescence plate reader. […] This technique is used to characterize pharmacological modification of the orexin receptors.
IP1 measurements are performed in CHO-K1 cells stably expressing the full-length human Orexin 1 receptor and the aequorin photoprotein. Cells are cultivated in Ham's nutrient mixture F12 medium with 10% fetal calf serum, in a 37°C, 95% humidity and 5% CO2 incubator. The CHO-K1/hOx1 cell mass is expanded to larger cell numbers. The cells are obtained as frozen cells in cryo-vials and stored until use at -150°C.
In preparation for the assay, 24 hours before the assay, the cells are thawed at 37°C and immediately diluted with cell culture medium. After centrifugation, the cell pellet is re-suspended in medium and then distributed into the assay plates with a density of 10000 cells/25 µL per well. The plates are incubated for one hour at room temperature to reduce edge effects before they are incubated for 24 hours at 37°C/5% CO2. Compounds are prepared by an 8-point serial dilution in DMSO and a final dilution step into assay buffer (HBSS with 20 mM HEPES, 0.1% BSA and 50 mM LiCl, pH 7.4) to ensure a final DMSO concentration of 1% in the assay.
On the day of the assay, cells in the plate are washed twice with 60 µL assay buffer (20 µL buffer remained in the wells after washing), followed by adding 5 µL per well of compounds diluted in assay buffer. After 15 minutes of incubation at room temperature 5 µL per well of Orexin A peptide (final concentration: 0.5 nM, and/or 50 nM for selected compounds) dissolved in assay buffer is added to the assay plate. The assay plate is incubated for 60 minutes at 37°C. Then 5 µL per well of Anti-IP1-Cryptate Tb solution and 5 µL per well of IP1-d2 dilution are added and the plate is incubated for a further 60 minutes light protected at room temperature.
8-point four parametric non-linear curve fitting and determination of IC50 values and Hill slopes is performed using a regular analysis software e.g. AssayExplorer (Accelrys).
In general terms: TR-FRET usually uses a lanthanide donor and a delayed reading to cut background.

Test [4] concerns the target T3, human orexin 2 receptor (Homo sapiens, UniProt O43614).
T3 construct: stably expressing the full-length human orexin 2 receptor; expressed in transfected cells; host or cells: CHO-K1 (CHO-K1/hOx2), co-expressing the aequorin photoprotein
T3 sequence (O43614 1-444): T1 sequence (O43614 1-444)
Nature of the test: Assay B: in vitro testing of OX2R potency, OX2R IP1 (HTRF) in CHO-K1/hOx2 cells. Format: cell-based. Particulars: 0.5 nM Orexin A concentration.

In test [5] the target is T4, OX1R (Homo sapiens, UniProt O43613).
T4 sequence (O43613 1-425): T2 sequence (O43613 1-425)
Nature of the test: OX1R assay of WO2016/034882, Table 3 (Method B). Type of test: cell-based. Particulars: ratio from WO2016/034882 Table 3 (Method B) values.

The target of test [6] is T4, OX1R. Particulars: data as described in WO03/051872 (page 16-18); given as a range; cited from earlier work.
Test [7] has as its target T1, OX2R. Particulars: data as described in WO03/051872 (page 16-18); given as a range; cited from earlier work.
The mark [8] stands for this setting: selectivity ratio, OX1R Kb at 50 nM Orexin A, OX2R Kb at 0.5 nM Orexin A.

Usually IC50 stands for the midpoint of a concentration-inhibition curve. For `CC[C@@H](CNc1ccc(Cl)cn1)N(C)C(=O)c1cc(C)ccc1-n1nccn1` [Ex 1 in WO2016/ 034882], in test [1], the IC50 was 1260 nM.

For the compound `CC[C@@H](CNc1ncc(C(F)(F)F)cn1)N(C)C(=O)c1cc(Cl)ccc1-n1nccn1` [Ex 39 in WO2016/ 034882], the IC50 in test [2] was 1580 nM. In test [1], the “OX2R pIC50” value was under 5.0 and the IC50 was under 10000 nM.

Regarding `CC[C@@H](CNc1ccc(C(F)(F)F)cn1)N(CC)C(=O)c1nc(C)ccc1-n1nccn1` [Ex 71 in WO2016/ 034882], in test [2], the “OX2R pIC50” value is given as 6.6. Further, the “OX2R Kb / OX1R Kb” value in test [3] worked out at 905.

In the case of `CC[C@@H](CNc1ncc(C(F)(F)F)cn1)N(CC)C(=O)c1nc(C)ccc1-n1nccn1` [Ex 73 in WO2016/ 034882], in test [2], the “OX2R pIC50” value is listed as under 6.0 and the IC50 was over 1000 nM.

In test [4], `CC[C@@H](CNc1ncc(C(F)(F)F)cn1)N(C)C(=O)c1nc(C)ccc1-c1ncccn1` [Ex 84 in WO2016/ 034882] gave a Kb of 229 nM.

As for `CC[C@@H](CNc1ncc(C(F)(F)F)cn1)N(C)C(=O)c1c(F)cccc1-n1nccn1` [Ex 91 in WO2016/ 034882], in test [2], the “OX2R pIC50” value is reported as under 5.1. The compound further came in with a Kb in test [4] of 313 nM. The “OX2R IC50 / OX1R IC50” value in test [5] is recorded as “Table 3: 318”.

In the case of `CCN(C(=O)c1c(-n2nccn2)ccc(C)c1F)[C@@H](C)CNc1ncc(C(F)(F)F)cn1` [Example 1], the “OX2R Kb / OX1R Kb” value in test [3] (setting [8]) is reported as 529.

As for `CCN(C(=O)c1cc(C)ccc1-n1nccn1)[C@@H](C)CNc1ncc(C(F)(F)F)cn1` [Example 2], in test [3] (setting [8]), the “OX2R Kb / OX1R Kb” value is 379.

Consider `CCN(C(=O)c1cc(OC)ccc1-n1nccn1)[C@@H](C)CNc1ncc(C(F)(F)F)cn1` [Example 4], for which the “OX2R Kb / OX1R Kb” value in test [3] (setting [8]) was 736.

As to `CCN(C(=O)c1ccc(C)cc1-n1nccn1)[C@@H](C)CNc1ncc(C(F)(F)F)cn1` [Example 5], in test [3] (setting [8]), the “OX2R Kb / OX1R Kb” value was found to be 1783.

With `Cc1nc(C(=O)N(C)CCNc2ncc(Br)cn2)c(-c2ccc(F)cc2)s1` [Example 6 in WO03/051872], the “OX1R pKb” value in test [6] was 6.4 to 7.4. In addition, the “OX2R pKb” value in test [7] is under 6.6 to 7.4.

In the case of `CCN(C(=O)c1nc(C)sc1-c1ccccc1)[C@@H](C)CNc1ncc(C(F)(F)F)cn1` [Example 6], the “OX2R Kb / OX1R Kb” value in test [3] (setting [8]) was 527.

Take `CCN(C(=O)c1ccc(Cl)cc1-n1nccn1)[C@@H](C)CNc1ncc(C(F)(F)F)cn1` [Example 7]: the “OX2R Kb / OX1R Kb” value in test [3] (setting [8]) worked out at 922.

For `CCN(C(=O)c1nc(C)sc1-c1ccc(F)cc1)[C@@H](C)CNc1ncc(C(F)(F)F)cn1` [Example 8], in test [3] (setting [8]), the “OX2R Kb / OX1R Kb” value is recorded as 367.

For `CCN(C(=O)c1cc(C)ccc1-n1nccn1)[C@@H](C)CNc1ccc(Cl)cn1` [Example 10], the “OX2R Kb / OX1R Kb” value in test [3] (setting [8]) is 403.

Consider `CCN(C(=O)c1cccc(F)c1-c1ncccn1)[C@@H](C)CNc1ccc(C(F)(F)F)cn1` [Example 11], for which the “OX2R Kb / OX1R Kb” value in test [3] (setting [8]) is 212.

As for `CCN(C(=O)c1cccc(F)c1-c1ncccn1)[C@@H](C)CNc1ccc(F)c(C(F)(F)F)n1` [Example 12], the “OX2R Kb / OX1R Kb” value in test [3] (setting [8]) was found to be 216.

As to `CCN(C(=O)c1cc(F)ccc1-c1ncccn1)[C@@H](C)CNc1ncc(C(F)(F)F)cc1F` [Example 13], the “OX2R Kb / OX1R Kb” value in test [3] (setting [8]) was determined as 438.

With `CCN(C(=O)c1ccc(C)c(C)c1-n1nccn1)[C@@H](C)CNc1ccc(Cl)cn1` [Example 14], the “OX2R Kb / OX1R Kb” value in test [3] (setting [8]) is recorded as 1018.

With `CCN(C(=O)c1cccc(F)c1-n1nccn1)[C@@H](C)CNc1ccc(C(F)(F)F)cn1` [Example 15], in test [3] (setting [8]), the “OX2R Kb / OX1R Kb” value came to 880.

On to `CCN(C(=O)c1cccc(F)c1-n1nccn1)[C@@H](C)CNc1ncc(C(F)(F)F)cc1F` [Example 16], for which the “OX2R Kb / OX1R Kb” value in test [3] (setting [8]) came to 560.

For the compound `CCN(C(=O)c1cccc(F)c1-n1nccn1)[C@@H](C)CNc1ccc(Cl)cn1` [Example 17], in test [3] (setting [8]), the “OX2R Kb / OX1R Kb” value turned out to be 268.

In the case of `CCN(C(=O)c1cccc(F)c1-n1nccn1)[C@@H](C)CNc1ccc(F)c(C(F)(F)F)n1` [Example 18], the “OX2R Kb / OX1R Kb” value in test [3] (setting [8]) is 209.

On to `CCN(C(=O)c1nccc(C(F)(F)F)c1-c1ccn(C)n1)[C@@H](C)COc1ccc(C(F)(F)F)cn1` [Example 19], for which the “OX2R Kb / OX1R Kb” value in test [3] (setting [8]) is on record as 230.

As to `CCN(C(=O)c1ccc(OC)cc1-n1nccn1)[C@@H](C)CNc1ncc(C(F)(F)F)cn1` [Example 20], the “OX2R Kb / OX1R Kb” value in test [3] (setting [8]) is recorded as 1264.
